Reference: patent publication US10668125B2, “Peptide having highly-shifted accumulation to pancreatic cancer cells and tissues, and use of said peptide” (Niigata University, priority 2015, dated 2020)
Where no end group is shown, it is not given here.

Tests used:
[1] = system: KYN-2 cells and normal cells originating from various tissues; assay: Test Example 1: accumulation of peptide to other cancer cells and normal cells (fluorescence microscope); format: cell-based, human; details: FITC-labeled peptide 2 μM, 2 hours at 37° C., FIG. 1
Experimental: (§1) These were maintained by subculture in the laboratory by the inventors.
(§2) Pancreatic cancer cells and HPNE cells were cultured using a 5% FBS-containing CS-C medium kit. KYN-2 cells, HaCaT cells, NHDF cells, MMNK-1 cells, and Liver cells were cultured using 10% FBS-containing RPMI1640 medium. Kidney cells were cultured using a proliferation medium for normal human renal epithelial cells (RenaLife Comp Kit). NuLi-1 cells were cultured using BEGM medium (Bronchial Epithelial Growth Medium, Serum-free). TIME cells were cultured using EBM-2-MV Bullet kit (Endothelial Cell Basal Medium-2 Bullet kit).
(§3) Those cells were cultured for 2 hours at 37° C. Subsequently, the cells were washed three times with the medium in order to remove the peptide-containing medium. Subsequently, the uptake of the various peptides in the living cells was visually evaluated using an inverted type fluorescence microscope. Prior to the microscopic examination, the culture supernatant containing the peptides were removed, the cells were washed three times with 1×PBS (−), and then the cells were treated with trypsin. Adherent cells were detached and were immediately transferred into a fresh 96-well plate. The cells were resuspended in a fresh culture fluid, and then a microscopic examination was performed.

BxPC3 cells [2] = assay: Test Example 1: quantitative fluorescence in BxPC3 cells relative to HPNE cells; format: cell-based, human; details: absorption into normal pancreatic duct epithelial cells (HPNE) designated as 1.0, 2 μM, 2 hours, FIG. 2B
Experimental: as §3
The graph of FIG. 2A is a graph showing the proportions of fluorescence intensities detected in various cells, the proportions being obtained by quantitatively analyzing the fluorescence detected in the various cells to which various peptides were added in Test Example 1, and determining relative values by designating the fluorescence detected in HPNE cells, which are a human immortalized normal pancreatic duct epithelial cell line, as 1.0. […]

[3] = system: various pancreatic cancer cells (BxPC3, PK-8, PL45, AsPC1, Panc1); assay: Test Example 1: accumulation of peptide to pancreatic cancer cells (fluorescence microscope); format: cell-based, human; details: FITC-labeled peptide 2 μM, 2 hours at 37° C., FIG. 1
Experimental: as §1, §2, §3

PK-8 cells = assay: Test Example 2: accumulation of peptide in tissues of mouse intraperitoneally transplanted with PK-8 cells; format: in vivo; details: NOD-SCID mice with PK-8 cells, i.v. 300 μg per 20 g body weight, 30 minutes after administration, FIG. 3B
Experimental: (§4) NOD-SCID mice (six-week-old female mice purchased from Crea-Japan, Inc.) intraperitoneally transplanted with Panc1 cells or PK-8 cells, which are human pancreatic cancer cells, in an amount of 1×10^6 cells in each animal, were produced as human pancreatic cancer cell-transplanted mice. Thirty days after the transplantation of human pancreatic cancer cells, Peptide 1 produced in Example 1 was intravenously (i.v.) injected to the mice in an amount of 300 μg with respect to 20 g of the mouse body weight. […] In FIG. 3A and FIG. 3B, the “Bright Field” refers to images taken in the bright field, and “FITC” refers to images taken in the dark field under the conditions of green fluorescence excitation at a wavelength of 488 nm.

Panc1 cells = assay: Test Example 2: accumulation of peptide in tissues of mouse intraperitoneally transplanted with Panc1 cells; format: in vivo; details: NOD-SCID mice with Panc1 cells, i.v. 300 μg per 20 g body weight, 30 minutes after administration, FIG. 3A
Experimental: as §4

BxPC3 cells [4] = assay: Test Example 3: accumulation of peptide in tissues of mouse with BxPC3 cells transplanted into the pancreas; format: in vivo
Experimental: NOD-SCID mice (six-week-old female mice purchased from Crea-Japan, Inc.) having BxPC3 cells, which are human pancreatic cancer cells, transplanted into the pancreas in an amount of 1×10^6 cells in each animal, were produced as human pancreatic cancer cell-transplanted mice. Thirty days after the transplantation of human pancreatic cancer cells, Peptide 4 produced in Example 1 was intravenously (i.v.) injected to the mice in an amount of 150 μg with respect to 20 g of the mouse body weight. […] In FIG. 4, the “Bright Field” refers to images taken in the bright field, and “FITC” refers to images taken in the dark field under the conditions of green fluorescence excitation at a wavelength of 488 nm. Furthermore, in FIG. 4, “brain” means the brain, “heart” means the heart, “kidney” means the kidney, “liver” means the liver, “lung” means the lung, “muscle” means the skeletal muscle, “pancreas” means the pancreas, “spleen” means the spleen, and “tumor” means a malignant tumor. “Surface” means the surface of various organs, and “transection” means a transverse section of various organs.
FIG. 5 is a graph showing the proportions of the fluorescence intensities detected in various tissues, the proportions being obtained by designating the fluorescence detected in normal pancreas as 1.0.

Row | Sequence | fluorescence detected in KYN-2 cells and normal cells originating from various tissues [1] | absorption ratio (S/N ratio) into BxPC3 cells (BxPC3 cells [2]) | fluorescence detected in the various pancreatic cancer cells [3] | fluorescence of FITC in tumor lesions and normal organs (PK-8 cells) | fluorescence of FITC in tumor lesions and normal organs (Panc1 cells) | fluorescence of FITC in tumor lesions and normal organs (BxPC3 cells [4]; NOD-SCID mice with BxPC3 cells in pancreas, i.v. 150 μg per 20 g body weight, 30 minutes after administration, FIG. 4) | S/N ratio in the target malignant tumor (BxPC3 cells [4]; absorption into normal pancreas designated as 1.0, i.v. 150 μg per 20 g, 30 minutes, FIG. 5) | S/N ratio in the kidneys (BxPC3 cells [4]; absorption into normal pancreas designated as 1.0, i.v. 150 μg per 20 g, 30 minutes, FIG. 5, ascribed to urinary excretion, not cell uptake)
1 | ARRYTWIRA (also: FITC label, site not given here) [Peptide 2, IVV library-derived 9-amino acid residue peptide, synthesized FITC-labeled] | fluorescence was hardly detected | about 6 times | strong fluorescence was detected |  |  |  |  | 
2 | GYRRTTPSYWRMWLR (also: FITC label, site not given here) [Peptide 1, IVV library-derived 15-amino acid residue peptide, synthesized FITC-labeled] | fluorescence was hardly detected | about 6 times | strong fluorescence was detected | strong fluorescence of FITC was detected in the tumor and the metastatic lesions | strong fluorescence of FITC was detected in the tumor and the metastatic lesions |  |  | 
3 | RRPTTWHKP (also: FITC label, site not given here) [Peptide 4, IVV library-derived 9-amino acid residue peptide, synthesized FITC-labeled] | fluorescence was hardly detected |  | strong fluorescence was detected |  |  | strong fluorescence of FITC was detected in the tumor and the kidneys | about 9 times | about 11 times
4 | RAWRQCRWR (also: FITC label, site not given here) [Peptide 3, IVV library-derived 9-amino acid residue peptide, synthesized FITC-labeled] | fluorescence was hardly detected |  | strong fluorescence was detected |  |  |  |  | 
